From US11932634B2 (Gilead Sciences, Inc., priority 2021, dated 2024) come the findings set out here.

The subject of experiment [1] is Jurkat NFκB-luciferase cells. The experiment is described as follows: Jurkat NFκB-Luciferase Assay.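 Also: bioluminescence read-out normalized to DMSO basal activation and to maximum enhancement at 1 µM compound, rising signal indicating stronger T-cell activation through DGKα inhibition.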 Type of experiment: cell-based. As to conditions: Homo sapiens; Jurkat NFκB-luciferase cells activated with anti-CD3 antibody (OKT3), 2.5 hrs at 37° C., One-Glo Ex; geometric mean; read-out: DGK NFKb Luciferase EC50.
Experimental: The activity of compounds was tested in a cell based NFκB reporter assay. Jurkat cells that are stably expressing a luciferase reporter construct under the transcriptional control of a NFκB reporter element were activated with an anti-CD3 antibody and luciferase levels were measured with a bioluminescence readout.
The day after, the excess antibody was washed out five times with 100 ul/well of assay medium (RPMI supplemented with 10% fetal bovine serum) using a Biotek EL406 instrument and leaving 20 µl of residual volume in each well. Jurkat NFκB-luciferase cells (Promega #) were harvested and diluted to 1 million cells/ml in assay medium. Sixty nanoliters of test compound dissolved in DMSO at various concentrations were dispensed into 384-well v-bottom polypropylene plates (Greiner) using a Labcyte Echo instrument. Thirty microliters of medium containing the Jurkat NFκB-luciferase cells were then dispensed using a Biotek MicroFlo instrument in each well of the compound-containing plate. The medium/cell/compound mixture was mixed with a Bravo instrument and 20 ul/well of the mixture was transferred to the anti-CD3-coated plate. The assay mixture was then incubated for 2.5 hrs at 37° C. followed by equilibration at 25° C. for 30 min. Forty microliters of One-Glo Ex (Promega) was then added to the assay mixture and luciferase activity was read on a Envision plate reader 7 minutes later.
Bioluminescence data were normalized based on maximum enhancement (1 micromolar of compound) and on basal activation (DMSO) controls. Least squares curve fittings were performed using a four-parameter variable slope nonlinear regression model. […] EC50 values from multiple experiments were averaged by geometric mean and the standard deviation was calculated.
Experiment [2] addresses T1, human DGKα (Homo sapiens, UniProt P23743).
T1 construct: purchased Carna Biosciences'; inferred from the same paragraph's 'obtained from Carna Biosciences')
The experiment is described as follows: DGKα Biochemical Activity Assay (ADP-Glo).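 Also: recombinant enzyme converting diacylglycerol in lipid micelles with ATP, ADP formed detected by luminescence, IC50 from a four-parameter nonlinear fit, geometric mean across experiments.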 In general terms: ADP-Glo turns the ADP formed in a reaction into a luminescent signal.
Text: Alternatively, the enzymatic activity of human DGKα was monitored in a biochemical assay in the presence or absence of compounds and using micelles containing 18:1 Diacylglycerol (DAG), 16:0-18:1 PS (POPS) and Octylglucoside as substrate. DGKα activity led to conversion of DAG and ATP to Phosphatidic Acid (PA) and ADP. Levels of ADP were monitored by bioluminescence using the ADP-Glo Kinase Assay (Promega) and were indicative of DGKα activity.
Ten nanoliters of test compound dissolved in DMSO at various concentrations were dispensed into a 384-well low volume nonbinding service white plates (Corning #3824) using a Labcyte Echo instrument. Recombinant DGKα Biosciences) in assay buffer (5 μL in 50 mM MOPS [3-(N-morpholino) propanesulfonic acid], pH 7.2; 0.0025% Triton X-100; 1 mM dithiothreitol; 5 mM MgCl2, 200 μM ATP) was added to the compound-containing plate and was incubated for 15 minutes at 25° C. A substrate solution (5 μL in 1.7 mM 1,2-dioleoyl-sn-glycerol [18:1 DAG], 13.5 mM 1-palmitoyl-2-oleoyl-sn-glycero-3-phospho-L-serine [16:0-18:1 PS](POPS), 2 μM CaCl2), 100 mM Octylglucoside (OG), 1 mM DTT) (obtained from Carna Biosciences) diluted in DGK ALPHA assay buffer was then added to start the reaction. Final concentrations were 1 nM DGKα, 100 μM ATP, 1 μM calcium chloride, 0.85 mM 1,2-dioleoyl-sn-glycerol (18:1 DAG), 6.75 mM 1-palmitoyl-2-oleoyl-sn-glycero-3-phospho-L-serine (16:0-18:1 PS) (POPS), 1 μM CaCl2), 50 mM Octylglucoside (OG) and 5 mM MgCl2. The reaction mixture was incubated at 25° C. for 1 hour. ADP-Glo Reagent (10 μL, 10 mM Mg added) provided by the kit was added to each well and incubated at 25° C. for 40 minutes. Then, 20 μL of Kinase Detection Reagent was added and incubated at 25° C. for 40 minutes. Luciferase activity of each well was measured via luminescence on an Envision plate reader (PerkinElmer).
Least squares curve fittings were performed using a four-parameter variable slope nonlinear regression model. […] IC50 values from multiple experiments were averaged by geometric mean and the standard deviation was calculated.

As a reminder, the EC50 is the concentration at which the effect is half-maximal. One may read the IC50 as the point on the concentration scale where inhibition reaches its midpoint. A lower IC50 goes with higher potency.

T1 sequence (P23743 whole entry): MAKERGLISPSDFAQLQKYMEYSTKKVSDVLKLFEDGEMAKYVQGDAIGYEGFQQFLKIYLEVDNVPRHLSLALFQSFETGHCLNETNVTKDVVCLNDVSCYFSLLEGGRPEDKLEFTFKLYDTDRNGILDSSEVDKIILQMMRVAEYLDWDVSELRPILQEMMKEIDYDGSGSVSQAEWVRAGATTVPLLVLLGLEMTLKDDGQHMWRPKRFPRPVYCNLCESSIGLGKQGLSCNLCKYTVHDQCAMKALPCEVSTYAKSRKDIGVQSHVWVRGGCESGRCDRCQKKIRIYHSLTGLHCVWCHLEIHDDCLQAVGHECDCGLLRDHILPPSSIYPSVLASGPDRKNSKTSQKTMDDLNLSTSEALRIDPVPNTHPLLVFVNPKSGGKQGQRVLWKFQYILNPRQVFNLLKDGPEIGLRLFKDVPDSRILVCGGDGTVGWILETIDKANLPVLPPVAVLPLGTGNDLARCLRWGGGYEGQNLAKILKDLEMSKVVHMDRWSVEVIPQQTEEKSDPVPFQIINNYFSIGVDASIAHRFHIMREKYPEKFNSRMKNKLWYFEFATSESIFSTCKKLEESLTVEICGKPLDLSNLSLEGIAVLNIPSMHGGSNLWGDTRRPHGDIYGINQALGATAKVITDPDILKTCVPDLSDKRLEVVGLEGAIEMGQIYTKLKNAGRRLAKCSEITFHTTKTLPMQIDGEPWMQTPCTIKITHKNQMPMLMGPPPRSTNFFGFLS

On to `[2H]C([2H])([2H])n1c(=O)nc(N(CC(F)F)c2ccnc(C#CC3(C)CC3)c2)c2c(F)c(F)ccc21` [Example 117, 4-[2,2-difluoroethyl-[2-[2-(1-methylcyclopropyl)ethynyl]-4-pyridyl]amino]-5,6-difluoro-1-(trideuteriomethyl)quinazolin-2-one], for which the EC50 in experiment [1] was 4.7 nM. The compound also had an IC50 in experiment [2] of 3.36 nM.
As to `O=c1nc(N2CCCCc3c(Br)cncc32)c2c(F)cccc2[nH]1` [Example 149, 4-(6-bromo-2,3,4,5-tetrahydro-1H-pyrido[3,4-b]azepin-1-yl)-5-fluoroquinazolin-2(1H)-one], the EC50 in experiment [1] was determined as 34.1 nM. In experiment [2], this compound registered an IC50 of 150 nM.
On to `Cn1c(=O)nc(N(CC(F)F)c2cc(F)cc(C#CC3(C(F)(F)F)CC3)c2)c2ccc(Cl)cc21` [Example 28, 7-chloro-4-[N-(2,2-difluoroethyl)-3-fluoro-5-[2-[1-(trifluoromethyl)cyclopropyl]ethynyl]anilino]-1-methyl-quinazolin-2-one], for which, in experiment [1], the EC50 amounted to 1.15 nM. The compound further displayed an IC50 in experiment [2] of 169 nM.
Taken in the same sequence, the figures for `[2H]C([2H])([2H])n1c(=O)nc(N(CC(F)F)c2ccnc(C#Cc3cnn(C)c3)c2)c2c(F)cccc21` [Example 137, 4-[2,2-difluoroethyl-[2-[2-(1-methylpyrazol-4-yl)ethynyl]-4-pyridyl]amino]-5-fluoro-1-(trideuteriomethyl)quinazolin-2-one] were 24.2 nM and 10.2 nM.
Taken in the same sequence, the figures for `[2H]C([2H])([2H])n1c(=O)nc(N2CCOCc3c(C#CC(C)(C)C#N)cccc32)c2c(F)c(F)ccc21` [Example 98, 4-[1-[5,6-difluoro-2-oxo-1-(trideuteriomethyl)quinazolin-4-yl]-3,5-dihydro-2H-4,1-benzoxazepin-6-yl]-2,2-dimethyl-but-3-ynenitrile] were 3.29 nM and 2.83 nM.
Consider `O=c1nc(N2CCOCc3c(C#CC4CC4)cccc32)c2c(F)ccc(F)c2[nH]1` [Example 146], for which, in experiment [1], the EC50 worked out at 4.69 nM. Besides, in experiment [2], the IC50 was determined as 9.59 nM.
For `CC(C)(O)C#Cc1cccc2c1COCCN2c1nc(=O)[nH]c2c(F)cc(F)cc12` [Example 103] the same measures were 47.4 nM and 8.98 nM.
For `[2H]C([2H])([2H])n1c(=O)nc(N(CC(F)F)c2ccnc(C#CC3(C(F)(F)F)CC3)c2)c2c(F)c(F)ccc21` [Example 80, 4-[2,2-difluoroethyl-[2-[2-[1-(trifluoromethyl)cyclopropyl]ethynyl]-4-pyridyl]amino]-5,6-difluoro-1-(trideuteriomethyl)quinazolin-2-one] the same measures were 1.94 nM and 3.75 nM.
Taken in the same sequence, the figures for `[2H]C([2H])([2H])n1c(=O)nc(N2CCCc3c(C#CC4(C(F)(F)F)CC4)cccc32)c2c(F)c(F)ccc21` [Example 42, 5,6-difluoro-1-(trideuteriomethyl)-4-[5-[2-[1-(trifluoromethyl)cyclopropyl]ethynyl]-3,4-dihydro-2H-quinolin-1-yl]quinazolin-2-one] were 0.311 nM and 9.48 nM.
With `CC(C)(O)C#Cc1cccc2c1COCCN2c1nc(=O)[nH]c2ccc(F)c(F)c12` [Example 88, 5,6-difluoro-4-[6-(3-hydroxy-3-methyl-but-1-ynyl)-3,5-dihydro-2H-4,1-benzoxazepin-1-yl]-1H-quinazolin-2-one], the EC50 in experiment [1] was found to be 21.9 nM. In addition, the IC50 in experiment [2] was found to be 4.7 nM.
For `CC(C)(C#N)C#Cc1nccc(N(CC(F)F)c2nc(=O)[nH]c3cccc(F)c23)c1F` [Example 119, 4-[4-[2,2-difluoroethyl-(5-fluoro-2-oxo-1H-quinazolin-4-yl)amino]-3-fluoro-2-pyridyl]-2,2-dimethyl-but-3-ynenitrile] the same measures were 7.11 nM and 10.8 nM.
For `O=c1nc(N(CC(F)F)c2cc(F)cc(C#CC3(C(F)(F)F)CC3)c2)c2cc(F)ccc2[nH]1` [Example 50, 4-[N-(2,2-difluoroethyl)-3-fluoro-5-[2-[1-(trifluoromethyl)cyclopropyl]ethynyl]anilino]-6-fluoro-1H-quinazolin-2-one] the same measures were 1.81 nM and 213 nM.
For `[2H]C([2H])([2H])n1c(=O)nc(N(CC(F)F)c2ccnc(C#Cc3cncn3C)c2)c2c(F)cccc21` [Example 136, 4-[2,2-difluoroethyl-[2-[2-(3-methylimidazol-4-yl)ethynyl]-4-pyridyl]amino]-5-fluoro-1-(trideuteriomethyl)quinazolin-2-one] the same measures were 84.4 nM and 26.5 nM.
Take `[2H]C([2H])([2H])n1c(=O)nc(N2CCOCc3c(C#CC(C)(C)NC(=O)C4(C(F)(F)F)CC4)cccc32)c2c(F)cccc21` [Example 176, N-(4-(1-(5-fluoro-1-(methyl-d3)-2-oxo-1,2-dihydroquinazolin-4-yl)-1,2,3,5-tetrahydrobenzo[e][1,4]oxazepin-6-yl)-2-methylbut-3-yn-2-yl)-1-(trifluoromethyl)cyclopropane-1-carboxamide]: the EC50 in experiment [1] is 5.36 nM. Half-maximal inhibition in experiment [2] (IC50) required 2.4 nM.
For `O=c1nc(N2CCOCc3c(C#CC4(C(F)(F)F)CC4)cccc32)c2c(F)c(F)ccc2[nH]1` [Example 89, 5,6-difluoro-4-[6-[2-[1-(trifluoromethyl)cyclopropyl]ethynyl]-3,5-dihydro-2H-4,1-benzoxazepin-1-yl]-1H-quinazolin-2-one] the same measures were 0.258 nM and 2.26 nM.
With `CCn1c(=O)nc(N(CC(F)F)c2cc(F)cc(C#CC3(C(F)(F)F)CC3)c2)c2c(F)cccc21` [Example 36, 4-[N-(2,2-difluoroethyl)-3-fluoro-5-[2-[1-(trifluoromethyl)cyclopropyl]ethynyl]anilino]-1-ethyl-5-fluoro-quinazolin-2-one], the EC50 in experiment [1] amounted to 21.1 nM. This compound came in with an IC50 in experiment [2] of 184 nM.
Consider `Cn1c(=O)nc(N(CC(F)(F)F)c2cc(F)cc(C#CC3(C(F)(F)F)CC3)c2)c2ccc(Cl)cc21` [Example 32, 7-chloro-4-[3-fluoro-N-(2,2,2-trifluoroethyl)-5-[2-[1-(trifluoromethyl)cyclopropyl]ethynyl]anilino]-1-methyl-quinazolin-2-one], for which the EC50 in experiment [1] turned out to be 1.02 nM. Moreover, the IC50 in experiment [2] is 123 nM.
For `[2H]C([2H])([2H])n1c(=O)nc(N(CC(F)F)c2ccnc(C#CC(C)(C)O)c2F)c2c(F)cccc21` [Example 128, 4-[2,2-difluoroethyl-[3-fluoro-2-(3-hydroxy-3-methyl-but-1-ynyl)-4-pyridyl]amino]-5-fluoro-1-(trideuteriomethyl)quinazolin-2-one] the same measures were 41.2 nM and 7.36 nM.
Taken in the same sequence, the figures for `O=c1nc(N2CCCCc3c(Br)cncc32)c2c(F)c(F)ccc2[nH]1` [Example 148, 4-(6-bromo-2,3,4,5-tetrahydro-1H-pyrido[3,4-b]azepin-1-yl)-5,6-difluoroquinazolin-2(1H)-one] were 2.77 nM and 44.1 nM.
Taken in the same sequence, the figures for `CN(c1cccc(C#CC2(C(F)(F)F)CC2)c1)c1nc(=O)[nH]c2cc(Cl)ccc12` [Example 5, 7-chloro-4-[N-methyl-3-[2-[1-(trifluoromethyl)cyclopropyl]ethynyl]anilino]-1H-quinazolin-2-one] were 1.01 nM and 53.1 nM.
Consider `CC(C)(C#Cc1nccc2c1CCCN2c1nc(=O)[nH]c2ccc(F)c(F)c12)C(F)(F)F` [Example 133, 5,6-difluoro-4-[5-(4,4,4-trifluoro-3,3-dimethyl-but-1-ynyl)-3,4-dihydro-2H-1,6-naphthyridin-1-yl]-1H-quinazolin-2-one], for which the EC50 in experiment [1] stood at 4.47 nM. The compound further gave an IC50 in experiment [2] of 23.2 nM.
For `O=c1nc(N2CCCc3c(C#CC4(C(F)(F)F)CC4)cncc32)c2c(F)cccc2[nH]1` [Example 71, 5-fluoro-4-(5-((1-(trifluoromethyl)cyclopropyl)ethynyl)-3,4-dihydro-1,7-naphthyridin-1(2H)-yl)quinazolin-2(1H)-one] the same measures were 1.43 nM and 18.4 nM.
`CC(C)(C#Cc1cncc2c1CCCN2c1nc(=O)[nH]c2cccc(F)c12)C(F)(F)F` [Example 72, 5-fluoro-4-(5-(4,4,4-trifluoro-3,3-dimethylbut-1-yn-1-yl)-3,4-dihydro-1,7-naphthyridin-1(2H)-yl)quinazolin-2(1H)-one]: the EC50 in experiment [1] worked out at 5.71 nM. This compound also showed an IC50 in experiment [2] of 126 nM.
Take `[2H]C([2H])([2H])n1c(=O)nc(N2CCCc3c(C#CC(C)(C)O)cccc32)c2c(Cl)cccc21` [Example 130, 5-chloro-4-[5-(3-hydroxy-3-methyl-but-1-ynyl)-3,4-dihydro-2H-quinolin-1-yl]-1-(trideuteriomethyl)quinazolin-2-one]: the 50% effective concentration (EC50) in experiment [1] was determined as 16.8 nM. This compound gave an IC50 in experiment [2] of 5.49 nM.
With `[2H]C([2H])([2H])n1c(=O)nc(N2CCCCc3c(C#CC4(C)CC4)cccc32)c2c(F)cccc21` [Example 86, 5-fluoro-4-[6-[2-(1-methylcyclopropyl)ethynyl]-2,3,4,5-tetrahydro-1-benzazepin-1-yl]-1-(trideuteriomethyl)quinazolin-2-one], in experiment [1], the EC50 amounted to 0.133 nM. The same compound registered an IC50 in experiment [2] of 1.13 nM.
In the case of `[2H]C([2H])([2H])n1c(=O)nc(N2CCOCc3c(C#CC4(C)COC4)cccc32)c2c(F)cccc21` [Example 101, 5-fluoro-1-(methyl-d3)-4-(6-((3-methyloxetan-3-yl)ethynyl)-2,3-dihydrobenzo[e][1,4]oxazepin-1(5H)-yl)quinazolin-2(1H)-one], in experiment [1], the EC50 is 4.09 nM. Further, the IC50 in experiment [2] was 2.62 nM.
Taken in the same sequence, the figures for `O=c1nc(N(CC(F)F)c2cc(F)cc(-c3cnc(C4CC4)cn3)c2)c2c(F)cccc2[nH]1` [Example 17, 4-[3-(5-cyclopropylpyrazin-2-yl)-N-(2,2-difluoroethyl)-5-fluoro-anilino]-5-fluoro-1H-quinazolin-2-one] were 1.23 nM and 30.1 nM.
